Laboratory results reported in ChEMBL document CHEMBL1201862, “PubChem BioAssay data set” (2004).
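Interpolation was linear, between the two tested concentrations surrounding the appropriate level; five concentrations were tested over 48 hours in 96-well plates. GI50 = concentration required for 50% inhibition of growth.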 Active and inactive are the calls of the source. Cut-off read from the data, not from the text of the source: active = GI50 up to about 1.1 µM and inactive = higher.

Tests used:
Assay in all cases: inhibition of tumour cell growth, NCI panel, 48 h
786-0 = tested on: 786-0
A498 = tested on: A498
A549 = tested on: A549
ACHN = tested on: ACHN
CAKI-1 = tested on: CAKI-1
CCRF-CEM = tested on: CCRF-CEM
COLO 205 = tested on: COLO 205
DLD-1 = tested on: DLD-1
DMS-114 = tested on: DMS-114
DMS-273 = tested on: DMS-273
EKVX = tested on: EKVX
HCC 2998 = tested on: HCC 2998
HCT-15 = tested on: HCT-15
HL-60 = tested on: HL-60
HOP-18 = tested on: HOP-18
HOP-62 = tested on: HOP-62
HOP-92 = tested on: HOP-92
HT-29 = tested on: HT-29
IGROV-1 = tested on: IGROV-1
K562 = tested on: K562
KM-20L2 = tested on: KM-20L2
KM12 = tested on: KM12
LOX IMVI = tested on: LOX IMVI
M19-MEL = tested on: M19-MEL
MOLT-4 = tested on: MOLT-4
Malme-3M = tested on: Malme-3M
NCI-H23 = tested on: NCI-H23
NCI-H460 = tested on: NCI-H460
NCI-H522 = tested on: NCI-H522
OVCAR-3 = tested on: OVCAR-3
OVCAR-5 = tested on: OVCAR-5
OVCAR-8 = tested on: OVCAR-8
RPMI-8226 = tested on: RPMI-8226
RXF 393 = tested on: RXF 393
SF-268 = tested on: SF-268
SF-295 = tested on: SF-295
SF-539 = tested on: SF-539
SK-MEL-28 = tested on: SK-MEL-28
SK-MEL-2 = tested on: SK-MEL-2
SK-MEL-5 = tested on: SK-MEL-5
SK-OV-3 = tested on: SK-OV-3
SN12C = tested on: SN12C
SNB-19 = tested on: SNB-19
SNB-75 = tested on: SNB-75
SNB-78 = tested on: SNB-78
SW-620 = tested on: SW-620
TK-10 = tested on: TK-10
U-251 = tested on: U-251
UACC-257 = tested on: UACC-257
UACC-62 = tested on: UACC-62
UO-31 = tested on: UO-31
HCT-116 = tested on: HCT-116
LXFL 529 = tested on: LXFL 529
M14 = tested on: M14
NCI-H226 = tested on: NCI-H226
OVCAR-4 = tested on: OVCAR-4
SR = tested on: SR

SMILES: COc1cc(/C=C/C(=O)c2sc(Nc3ccccc3)nc2C)ccc1O
- GI50 (786-0): > 100 µM (inactive)
- GI50 (A498): > 100 µM (inactive)
- GI50 (A549): 71.8 µM (inactive)
- GI50 (ACHN): 50.5 µM (inactive)
- GI50 (CAKI-1): 42.9 µM (inactive)
- GI50 (CCRF-CEM): 88.5 µM (inactive)
- GI50 (COLO 205): > 100 µM (inactive)
- GI50 (DLD-1): 37.5 µM (inactive)
- GI50 (DMS-114): 44.6 µM (inactive)
- GI50 (DMS-273): > 100 µM (inactive)
- GI50 (EKVX): 19.8 µM (inactive)
- GI50 (HCC 2998): > 100 µM (inactive)
- GI50 (HCT-15): 84.1 µM
- GI50 (HL-60): 44.2 µM (inactive)
- GI50 (HOP-18): > 100 µM (inactive)
- GI50 (HOP-62): 40.7 µM (inactive)
- GI50 (HOP-92): 35.6 µM (inactive)
- GI50 (HT-29): 97.9 µM (inactive)
- GI50 (IGROV-1): > 100 µM (inactive)
- GI50 (K562): 56.4 µM (inactive)
- GI50 (KM-20L2): > 100 µM (inactive)
- GI50 (KM12): > 100 µM (inactive)
- GI50 (LOX IMVI): 48.5 µM (inactive)
- GI50 (M19-MEL): > 100 µM (inactive)
- GI50 (MOLT-4): 46 µM (inactive)
- GI50 (Malme-3M): > 100 µM (inactive)
- GI50 (NCI-H23): > 100 µM (inactive)
- GI50 (NCI-H460): > 100 µM (inactive)
- GI50 (NCI-H522): 42.4 µM (inactive)
- GI50 (OVCAR-3): 33.5 µM (inactive)
- GI50 (OVCAR-5): > 100 µM (inactive)
- GI50 (OVCAR-8): 96.8 µM (inactive)
- GI50 (RPMI-8226): 83.2 µM (inactive)
- GI50 (RXF 393): 51.9 µM (inactive)
- GI50 (SF-268): 49.2 µM (inactive)
- GI50 (SF-295): 38.2 µM (inactive)
- GI50 (SF-539): > 100 µM (inactive)
- GI50 (SK-MEL-28): > 100 µM (inactive)
- GI50 (SK-MEL-2): > 100 µM (inactive)
- GI50 (SK-MEL-5): 38.4 µM (inactive)
- GI50 (SK-OV-3): > 100 µM (inactive)
- GI50 (SN12C): 59.6 µM (inactive)
- GI50 (SNB-19): > 100 µM (inactive)
- GI50 (SNB-75): 23.5 µM (inactive)
- GI50 (SNB-78): > 100 µM (inactive)
- GI50 (SW-620): > 100 µM (inactive)
- GI50 (TK-10): > 100 µM (inactive)
- GI50 (U-251): > 100 µM (inactive)
- GI50 (UACC-257): > 100 µM (inactive)
- GI50 (UACC-62): 82.8 µM (inactive)
- GI50 (UO-31): 43.6 µM (inactive)

SMILES: C1CCOC2(CCC3(CC2)OCCCCO3)OC1
- GI50 (786-0): > 100 µM (inactive)
- GI50 (A498): > 100 µM (inactive)
- GI50 (A549): > 100 µM (inactive)
- GI50 (ACHN): > 100 µM (inactive)
- GI50 (CAKI-1): > 100 µM (inactive)
- GI50 (CCRF-CEM): > 100 µM (inactive)
- GI50 (COLO 205): > 100 µM (inactive)
- GI50 (DLD-1): > 100 µM (inactive)
- GI50 (DMS-114): > 100 µM (inactive)
- GI50 (DMS-273): > 100 µM (inactive)
- GI50 (HCC 2998): > 100 µM (inactive)
- GI50 (HCT-116): > 100 µM (inactive)
- GI50 (HCT-15): > 100 µM
- GI50 (HL-60): > 100 µM (inactive)
- GI50 (HOP-18): > 100 µM (inactive)
- GI50 (HOP-62): > 100 µM (inactive)
- GI50 (IGROV-1): > 100 µM (inactive)
- GI50 (K562): > 100 µM (inactive)
- GI50 (KM-20L2): > 100 µM (inactive)
- GI50 (KM12): > 100 µM (inactive)
- GI50 (LXFL 529): > 100 µM (inactive)
- GI50 (M14): > 100 µM (inactive)
- GI50 (M19-MEL): > 100 µM (inactive)
- GI50 (MOLT-4): > 100 µM (inactive)
- GI50 (Malme-3M): > 100 µM (inactive)
- GI50 (NCI-H226): > 100 µM (inactive)
- GI50 (NCI-H460): > 100 µM (inactive)
- GI50 (NCI-H522): > 100 µM (inactive)
- GI50 (OVCAR-4): > 100 µM (inactive)
- GI50 (OVCAR-8): > 100 µM (inactive)
- GI50 (RPMI-8226): > 100 µM (inactive)
- GI50 (RXF 393): > 100 µM (inactive)
- GI50 (SF-268): > 100 µM (inactive)
- GI50 (SF-539): > 100 µM (inactive)
- GI50 (SK-MEL-28): > 100 µM (inactive)
- GI50 (SK-MEL-2): > 100 µM (inactive)
- GI50 (SK-MEL-5): > 100 µM (inactive)
- GI50 (SK-OV-3): > 100 µM (inactive)
- GI50 (SN12C): > 100 µM (inactive)
- GI50 (SNB-19): > 100 µM (inactive)
- GI50 (SNB-75): > 100 µM (inactive)
- GI50 (SNB-78): > 100 µM (inactive)
- GI50 (SR): > 100 µM (inactive)
- GI50 (SW-620): > 100 µM (inactive)
- GI50 (TK-10): > 100 µM (inactive)
- GI50 (U-251): > 100 µM (inactive)
- GI50 (UACC-257): > 100 µM (inactive)
- GI50 (UACC-62): > 100 µM (inactive)
- GI50 (UO-31): > 100 µM (inactive)
